Test system: Kochia (Bassia scoparia)
Assay: Greenhouse post emergence treatment, herbicidal activity by visual control on a 0 to 100 scale
Assay type: in vivo
Settings: scale 0 to 100, mean of three replications
Source text: Synergism can be described as an interaction where the combined effect of two or more compounds is greater than the sum of the individual effects of each of the compounds. The presence of a synergistic effect in terms of percent control, between two mixing partners (X and Y) can be calculated using the Colby equation (Colby, S. R., 1967, Calculating Synergistic and Antagonistic Responses in Herbicide Combinations, Weeds, 15, 21-22):
When the observed combined control effect is greater than the expected (calculated) combined control effect (E), then the combined effect is synergistic.
Weed included Kochia (Bassia scoparia). However, the herbicidal effect afforded by the compounds, mixtures or compositions is not limited to these species. The analysis of synergism or antagonism between the mixtures or compositions was determined using Colby's equation. • Test Method: […]
Pots with 0.3 L of volume were filled with soil (SunGroco Horticulture, Agawam, MA 01001) to grow one plant per pot in the greenhouse until the desired developmental stage.
Environmental conditions inside the greenhouse were setup for 25° C., 75% relative humidity, and 12 h light day-1 with natural sunlight or 500 μmol m−1 s−1 PAR for cloudy days. […]
The test period extended to 2 to 21 days after treatment. During this time, the plants were tended, and their response to the individual treatments was evaluated. […]

## CP(=O)(O)CCC(N)C(=O)O (racemic) [Glufosinate, (2RS)-2-amino-4-[hydroxy(methyl)phosphinoyl]butyric acid]
Glufosinate 420 g ai/ha alone
  Herbicidal activity against Kochia (21 DAT), Found: 25

## C#CCN1C(=O)COc2cc(F)c(N3C(=O)C4=C(CCCC4)C3=O)cc21 [Flumioxazin, flumioxazin]
Flumioxazin 2.5 g ai/ha alone
  Herbicidal activity against Kochia (21 DAT), Found: 4
